Earlier results as cited in US9579299B2, “CNS pharmaceutical compositions and methods of use” (TARGIA PHARMACEUTICALS, priority 2008, dated 2017).
Where two headings read alike, the source gives them in different places.

Columns and labels:
[1] = cited from earlier work
treated patients = conditions: anti-epileptics; cited from earlier work
[2] = cited from earlier work; remark: listed apart in the source
[3] = parent drug; cited from earlier work

Structure (SMILES): CCN(CC)C(=O)N[C@H]1C=C2c3cccc4[nH]cc(c34)C[C@H]2N(C)C1 [Lisuride]
- Half-life ([1]; in vivo): 2 h
- Tmax ([1]; in vivo): 1.1 to 1.3 h

Structure (SMILES): CCC1(c2ccccc2)C(=O)NCNC1=O [Primidone]
- Psychiatric side-effects (treated patients): Sedation, mood lability, psychotic symptoms, delirium

Structure (SMILES): CN[C@@H](C)[C@@H](O)c1ccccc1 [Pseudoephedrine]
- Tmax ([2]; selected neuromodulators): 0.5 to 1 h

Structure (SMILES): Cc1ccccc1C(OCCN(C)C)c1ccccc1 (stereo not shown) [Orphenadrine]
- Half-life ([1]; in vivo): 13 to 20 h
- Tmax ([1]; in vivo): 2 h

Structure (SMILES): CCC1(c2ccccc2)C(=O)NC(=O)NC1=O [Phenobarbital, 5-ethyl-5-phenyl barbituric acid]
- Tmax ([2]; CNS active agent): 2 h

Structure (SMILES): N#CCCN1C(=O)C(O)N=C(c2ccccc2F)c2cc(Cl)ccc21 (stereo not shown) [Cinolazepam]
- Elimination Half-Life [3]: 9 h

Structure (SMILES): OC(CCN1CCCCC1)(c1ccccc1)C1CC2C=CC1C2 (stereo not shown) [Biperiden]
- Half-life ([1]; in vivo): 18 to 24 h
- Tmax ([1]; in vivo): 1.5 h

Structure (SMILES): CCOC(=O)C1(c2ccccc2)CCN(C)CC1 [Meperidine(Pethidine), Meperidine]
- Half-life ([1]; in vivo): 3 to 5 h
- Tmax ([1]; oral): oral, up to 1.5 h
- Tmax ([1]; stated in words (injection / IV)): IV, several min

Structure (SMILES): CN1C(=O)CN=C(c2ccccc2)c2cc(Cl)ccc21 [Diazepam]
- bioactivity ([2]; CNS active agent): 97%

Structure (SMILES): CN1C(=O)CC(=O)N(c2ccccc2)c2cc(Cl)ccc21 [Clobazam]
- Elimination Half-Life [3]: 12 to 60 h

Structure (SMILES): CN1C(=O)CN=C(C2=CCCCC2)c2cc(Cl)ccc21 [Tetrazepam]
- Elimination Half-Life [3]: 3 to 26 h

Structure (SMILES): CCC(=O)C(CC(C)N(C)C)(c1ccccc1)c1ccccc1 (stereo not shown) [Methadone]
- Tmax ([1]; in vivo): 1 to 7.5 h

Structure (SMILES): O=C1CN=C(c2ccccn2)c2cc(Br)ccc2N1 [Bromazepam]
- Elimination Half-Life [3]: 10 to 20 h

Structure (SMILES): CN1C(=O)C(O)N=C(c2ccccc2Cl)c2cc(Cl)ccc21 (stereo not shown) [Lormetazepam]
- Elimination Half-Life [3]: 10 to 12 h

Structure (SMILES): O=C1CN=C(c2ccccc2Cl)c2cc([N+](=O)[O-])ccc2N1 [Clonazepam]
- Elimination Half-Life [3]: 18 to 50 h
- Tmax ([2]; CNS active agent): 4 h
- bioactivity ([2]; CNS active agent): 90%

Structure (SMILES): C=CC(N)CCC(=O)O (stereo not shown) [Vigabatrin (GVG), Gamma vinyl GABA]
- Tmax ([2]; CNS active agent): 0.4 to 1 h

Structure (SMILES): NCC(CC(=O)O)c1ccc(Cl)cc1 (stereo not shown) [Baclofen]
- Half-life ([1]; in vivo): 1.5 to 4 h
- Tmax ([1]; in vivo): 0.5 to 1 h

Structure (SMILES): CN1CCN(/C=C2\N=C3CN=C(c4ccccc4Cl)c4cc([N+](=O)[O-])ccc4N3C2=O)CC1 [Loprazolam]
- Elimination Half-Life [3]: 6 to 12 h

Structure (SMILES): O=C1CN=C(c2ccccc2)c2cc([N+](=O)[O-])ccc2N1 [Nitrazepam]
- Elimination Half-Life [3]: 15 to 38 h

Structure (SMILES): COc1ccccc1OCC(O)COC(N)=O (stereo not shown) [Methocarbamol]
- Half-life ([1]; in vivo): 1 to 2 h
- Tmax ([1]; in vivo): 1 to 2 h
- Half-life ([1]; in vivo, listed as Robaxin): 1.14 to 1.24 h
- Tmax ([1]; in vivo, listed as Robaxin): 0.5 to 1 h

Structure (SMILES): Fc1ccc(C(c2ccc(F)cc2)N2CCN(C/C=C/c3ccccc3)CC2)cc1 [Flunarizine]
- Half-life ([1]; in vivo): 456 h
- Tmax ([1]; in vivo): 1 h

Structure (SMILES): CC1=CC(=O)N2CC(=O)N(C)c3ccc(Cl)cc3C2(c2ccccc2)O1 (stereo not shown) [Ketazolam]
- Elimination Half-Life [3]: 2 h

Structure (SMILES): COCCc1ccc(OCC(O)CNC(C)C)cc1 (stereo not shown) [Metoprolol]
- Half-life ([1]; in vivo): 3 to 7 h
- Tmax ([1]; in vivo): (fast) up to 1 h

Structure (SMILES): COc1ccc2c(c1)N(C[C@H](C)CN(C)C)c1ccccc1S2 [Methotrimeprazine]
- Half-life ([1]; in vivo): 20 h
- Tmax ([1]; in vivo): 1 to 4 h

Structure (SMILES): CN1CCN=C(c2ccccc2)c2cc(Cl)ccc21 [Medazepam]
- Elimination Half-Life [3]: 36 to 200 h

Structure (SMILES): Fc1ccccc1C1=NCC(=S)N(CC(F)(F)F)c2ccc(Cl)cc21 [Quazepam]
- Elimination Half-Life [3]: 25 to 100 h

Structure (SMILES): Cc1cc2c(s1)Nc1ccccc1N=C2N1CCN(C)CC1 [Olanzapine]
- Tmax ([2]; CNS active agent): 5 to 8 h
- bioactivity ([2]; CNS active agent): 40%

Structure (SMILES): CN1CCN(C2=Nc3cc(Cl)ccc3Nc3ccccc32)CC1 [Clozapine]
- Tmax ([2]; CNS active agent): 2.5 h

Structure (SMILES): Clc1ccc2c(c1)C(c1ccccc1)=NCc1nncn1-2 [Estazolam]
- Elimination Half-Life [3]: 10 to 24 h

Structure (SMILES): CNC1=Nc2ccc(Cl)cc2C(c2ccccc2)=[N+]([O-])C1 [Chlordiazepoxide]
- Elimination Half-Life [3]: 5 to 30 h

Structure (SMILES): COc1ccc(OC)c(C(O)CNC(=O)CN)c1 (stereo not shown) [Mitodrin]
- Tmax ([2]; selected neuromodulators): 0.25 to 0.5 h
